Consider eight compounds from patent US8367718B2, “Epigallocatechin gallate trimer and α-glucosidase inhibitor containing epigallocatechin gallate polymer” (Suntory Holdings Limited, priority 2008, dated 2013).

The target in assay [1] is maltase. Particulars: background art, literature values; read-out: maltase inhibitory activity IC50; cited from earlier work.
Assay [2] concerns α-glucosidase. Nature of the assay: Alpha-glucosidase inhibitory activity of EGCG polymers (p-nitrophenyl-α-D-glucopyranoside substrate, A405 nm). Conditions: for α-glucosidase inhibitory activity (in words): qualitative statement; for inhibitory activity relative to the EGCG monomer: α-glucosidase, compared with EGCG monomer. Type of assay: biochemical. On the procedure:
A […] sodium phosphate buffer solution was prepared by blending 0.1 M NaH2PO4.2H2O and 0.1M Na2HPO4.12H2O and the pH was adjusted to 7.0. To this, 2 g/L bovine serum albumin (F-V, manufactured by Nacalai Tesque Inc., pH 5.2, purity 96%) and 0.2 g/L NaN3 (manufactured by Nacalai Tesque Inc., special grade reagent) were added. An enzyme solution was prepared by dissolving α-glucosidase (manufactured by Wako Pure Chemical Industries Ltd., derived from yeast, 100 units/mg) in the above buffer solution so as to obtain 0.5 units/mg protein /ml (100 μg/20 ml). A substrate solution was prepared by dissolving p-nitrophenyl-α-D-glucopyranoside (manufactured by Nacalai Tesque Inc., special grade reagent) in the buffer solution so as to obtain 5 mM (7.525 mg/5 ml).
Of the samples used for evaluation, theasinensin (TSN)-A and TSN-D were synthesized in accordance with the paper (Hashimoto, F. Nonaka, G. Nishioka, I. Chem. Pharm. Bull. 36 (5), 1676-1684 (1988)) and oolongtheanin-gallate (hereinafter referred to as “OTNG”) were synthesized in accordance with the method described in the paper of J. Agric. Food Chem. 53, 4593-4598 (2005).
These samples were prepared so as to satisfy 10 mg/ml DMSO and serially diluted 6 times by doubling dilution. Using a 96-well microplate, enzyme solution (45 μL) was added to a sample solution (10 μL) and pre-incubated at 37° C. for 5 minutes. Thereafter, the substrate solution (45 μL) was added and absorbance was measured at A 405 nm. After incubation was performed at 37° C. for 5 minutes, absorbance was measured at A 405 nm. The inhibition rate was calculated as a difference from the absorbance at A405 nm of a control, which contains DMSO alone in place of a sample. Each activity measurement was performed twice.

“Also recorded” adds a separate entry of the source.

By IC50 is commonly meant the concentration that gives 50% inhibition. In the case of 3-sophoroside-5-glucoside of peonidin, the half-maximal inhibitory concentration (IC50) in assay [1] was 200 µM. Take `O=C(O[C@@H]1Cc2c(O)cc(O)cc2O[C@@H]1c1cc(O)c(O)c(O)c1-c1c([C@H]2Oc3cc(O)cc(O)c3C[C@H]2OC(=O)c2cc(O)c(O)c(O)c2)cc(O)c(O)c1O)c1cc(O)c(O)c(O)c1` (single isomer, unassigned) [TSN-A, theasinensin A]: the IC50 in assay [1] is 142 µM. Turning to `O=C(O[C@@H]1Cc2c(O)cc(O)cc2O[C@@H]1c1cc(O)c(O)c(O)c1-c1c([C@H]2Oc3cc(O)cc(O)c3C[C@H]2OC(=O)c2cc(O)c(O)c(O)c2)cc(O)c(O)c1O)c1cc(O)c(O)c(O)c1` (single isomer, unassigned) [TSN-D, theasinensin-D], in assay [2], the “α-glucosidase inhibitory activity (in words)” value is “strong α-glucosidase inhibitory activity”. Regarding `O=C(O[C@@H]1Cc2c(cc(O)c(Cc3c(O)cc(O)c4c3O[C@H](c3cc(O)c(O)c(O)c3)[C@H](OC(=O)c3cc(O)c(O)c(O)c3)C4)c2O)O[C@@H]1c1cc(O)c(O)c(O)c1)c1cc(O)c(O)c(O)c1` [OHBF-B, oolong homobisflavan-B], the “α-glucosidase inhibitory activity (in words)” value in assay [2] is reported as “strong α-glucosidase inhibitory activity”. For the compound `O=C(OC1Cc2c(O)cc(O)c(Cc3c(O)c(Cc4c(O)c(Cc5c(O)cc(O)c6c5OC(c5cc(O)c(O)c(O)c5)C(OC(=O)c5cc(O)c(O)c(O)c5)C6)c5c(c4O)CC(OC(=O)c4cc(O)c(O)c(O)c4)C(c4cc(O)c(O)c(O)c4)O5)c4c(c3O)CC(OC(=O)c3cc(O)c(O)c(O)c3)C(c3cc(O)c(O)c(O)c3)O4)c2OC1c1cc(O)c(O)c(O)c1)c1cc(O)c(O)c(O)c1` [OHBF-tetramer-1, (2R,3R)-8-(H2R,3R)-8-(((2R,3R)-8-(((2R,3R)-5,7-dihydroxy-3-(3,4,5-trihydroxybenzoyloxy)-2-(3,4,5-trihydroxyphenyl)chroman-8-yl)methyl)-5,7-dihydroxy-3-(3,4,5-trihydroxybenzoyloxy)-2-(3,4,5-trihydroxyphenyl)chroman-6-yl)methyl)-5,7-dihydroxy-3-(3,4,5-trihydroxybenzoyloxy)-2-(3,4,5-trihydroxyphenyl)chroman-6-yl)methyl)-5,7-dihydroxy-2-(3,4,5-trihydroxyphenyl)chroman-3-yl 3,4,5-trihydroxybenzoate], the results for the “α-glucosidase inhibitory activity (in words)” value in assay [2] (listed as Oolong homobisflavan-tetramer-1) and in assay [2] (listed as oolong homobisflavan-tetramer-1) were “particularly strong activities” and “significant inhibitory activity; also recorded: high activity”, respectively. Further, the “inhibitory activity relative to the EGCG monomer” value in assay [2] is given as 10 times.

On to `O=C(OC1Cc2c(O)cc(O)c(Cc3c(O)c(Cc4c(O)c(Cc5c(O)cc(O)c6c5OC(c5cc(O)c(O)c(O)c5)C(OC(=O)c5cc(O)c(O)c(O)c5)C6)c(O)c5c4OC(c4cc(O)c(O)c(O)c4)C(OC(=O)c4cc(O)c(O)c(O)c4)C5)c4c(c3O)CC(OC(=O)c3cc(O)c(O)c(O)c3)C(c3cc(O)c(O)c(O)c3)O4)c2OC1c1cc(O)c(O)c(O)c1)c1cc(O)c(O)c(O)c1` [OHBF-tetramer-2, (2R,2′R,3R,3′R)-8,8′-(2R,2′R,3R,3′R)-8,8′-methylenebis(5,7-dihydroxy-3-(3,4,5-trihydroxybenzoyloxy)-2-(3,4,5-trihydroxyphenyl)chroman-8,6-diyl)bis(methylene)bis(5,7-dihydroxy-2-(3,4,5-trihydroxyphenyl)chroman-8,3-diyl) bis(3,4,5-trihydroxybenzoate)], for which the “α-glucosidase inhibitory activity (in words)” value in assay [2] was “significant inhibitory activity”. Consider `O=C(O[C@@H]1Cc2c(cc(O)c(Cc3c(O)c(Cc4c(O)cc(O)c5c4O[C@H](c4cc(O)c(O)c(O)c4)[C@H](OC(=O)c4cc(O)c(O)c(O)c4)C5)c(O)c4c3O[C@H](c3cc(O)c(O)c(O)c3)[C@H](OC(=O)c3cc(O)c(O)c(O)c3)C4)c2O)O[C@@H]1c1cc(O)c(O)c(O)c1)c1cc(O)c(O)c(O)c1` [OHBF-trimer-2, (2R,3R)-8-(((2R,3R)-8-(((2R,3R)-5,7-dihydroxy-3-(3,4,5-trihydroxybenzoyloxy)-2-(3,4,5-trihydroxyphenyl)chroman-6-yl)methyl)-5,7-dihydroxy-3-(3,4,5-trihydroxybenzoyloxy)-2-(3,4,5-trihydroxyphenyl)chroman-6-yl)methyl)-5,7-dihydroxy-2-(3,4,5-trihydroxyphenyl)chroman-3-yl 3,4,5-trihydroxybenzoate], for which the “α-glucosidase inhibitory activity (in words)” value in assay [2] was “significant inhibitory activity”. As for `O=C(O[C@@H]1Cc2c(cc(O)c(Cc3c(O)c(Cc4c(O)cc(O)c5c4O[C@H](c4cc(O)c(O)c(O)c4)[C@H](OC(=O)c4cc(O)c(O)c(O)c4)C5)c4c(c3O)C[C@@H](OC(=O)c3cc(O)c(O)c(O)c3)[C@@H](c3cc(O)c(O)c(O)c3)O4)c2O)O[C@@H]1c1cc(O)c(O)c(O)c1)c1cc(O)c(O)c(O)c1` [OHBF-trimer-4, (2R,3R)-8-(((2R,3R)-6-(((2R,3R)-5,7-dihydroxy-3-(3,4,5-trihydroxybenzoyloxy)-2-(3,4,5-trihydroxyphenyl)chroman-6-yl)methyl)-5,7-dihydroxy-3-(3,4,5-trihydroxybenzoyloxy)-2-(3,4,5-trihydroxyphenyl)chroman-8-yl)methyl)-5,7-dihydroxy-2-(3,4,5-trihydroxyphenyl)chroman-3-yl 3,4,5-trihydroxybenzoate], the “α-glucosidase inhibitory activity (in words)” value in assay [2] (listed as oolong homobisflavan-trimer-4) is listed as “particularly strong activities; also recorded: significant inhibitory activity; also recorded: high activity”. For the same compound, the “inhibitory activity relative to the EGCG monomer” value in assay [2] is listed as 10 times.
